From patent US10723733B2, “Hepatitis B antiviral agents” (Enanta Pharmaceuticals, Inc., priority 2017, dated 2020)

Assays:
[1] = Compound toxicity, ATPLite total ATP levels; format: cell-based; conditions: human, HepG2 cells, 50% reduction of total ATP levels (ATPLite), three days after compound addition
Procedure: Compound toxicity is evaluated by seeding cells at 15,000 cells/well and treating with compound as described above.

HBV = test: HepAD38 antiviral assay: reduction of viral product accumulation (virion DNA by qPCR, HBsAg/HBeAg by ELISA); format: cell-based; conditions: Hepatitis B virus, 120 h, HepAD38 cells, 50% reduction of viral product accumulation vs no drug controls, five days after compound addition
Procedure: Methods: HepAD38 cells are maintained as previously reported (Ladner et al, Antimicrob. Agents Chemother. 1997, […], 1715). Briefly, cells are passaged upon attaining confluency in DMEM/F12 media in the presence of 10% FBS, Penn/Strep, 250 μg/mL G418, and 1 μg/ml tetracycline. Novel compounds are screened by first washing cells three times with PBS to remove tetracycline, and plating in 96 well plates at 35,000 cells/well. Compounds dissolved in DMSO are then diluted 1:200 into wells containing cells. Five days after compound addition, material is harvested for analysis. For an extended 8 day analysis, cells are plated and treated as described above, but media and compound are refreshed on d2 and d5 post initial treatment.
On harvest day, virion DNA is obtained by lysing with Sidestep Lysis and Stabilization Buffer and then quantified via quantitative real time PCR. Commercially available ELISA kits are used to quantitate the viral proteins HBsAg (Alpco) or HbeAg (US Biological) by following the manufacturer's recommended protocol after diluting samples to match the linear range of their respective assays. Irrespective of readout, compound concentrations that reduce viral product accumulation in the cell lysates or supernatants by 50% relative to no drug controls (EC50) are reported; EC50 ranges are as follows: A<0.1 μM; B 0.1-1 μM; C>1 μM.

CNS(=O)(=O)N[C@H]1CC2=C(c3cnn(C(F)F)c3)[C@H](c3ccc(F)cc3Cl)N=C(c3nccs3)N2C1 [Example 11]
CC50 at 3 days [1]: > 25000 nM
EC50 (HBV; class symbols): < 100 nM

O=S(=O)(NC1CC1)N[C@H]1CC2=C(c3cnn(C(F)F)c3)[C@H](c3ccc(F)cc3Cl)N=C(c3nccs3)N2C1 [Example 12]
CC50 at 3 days [1]: 10000 to 25000 nM
EC50 (HBV; class symbols): < 100 nM

O=S(=O)(N[C@H]1CC2=C(c3cnn(C(F)F)c3)[C@H](c3ccc(F)cc3Cl)N=C(c3nccs3)N2C1)C1CC1 [Example 1]
CC50 at 3 days [1]: > 25000 nM
EC50 (HBV; class symbols): < 100 nM

NS(=O)(=O)N[C@H]1CC2=C(c3cnn(C(F)F)c3)[C@H](c3ccc(F)cc3Cl)N=C(c3nccs3)N2C1 [Example 9]
CC50 at 3 days [1]: > 25000 nM
EC50 (HBV; class symbols): < 100 nM

O=S(=O)(N[C@H]1CC2=C(c3cnn(C(F)(F)F)c3)[C@H](c3ccc(F)cc3Cl)N=C(c3nccs3)N2C1)C1CC1 [Example 8]
CC50 at 3 days [1]: 10000 to 25000 nM
EC50 (HBV; class symbols): < 100 nM

COC(=O)N[C@]1(CO)CC2=C(c3ccn(C(F)F)n3)[C@H](c3ccc(F)cc3Cl)N=C(c3nccs3)N2C1 [Example 61]
CC50 at 3 days [1]: > 25000 nM
EC50 (HBV; class symbols): < 100 nM

CS(=O)(=O)N[C@H]1CC2=C(c3cnn(C(F)F)c3)[C@H](c3ccc(F)cc3Cl)N=C(c3nccs3)N2C1 [Example 10]
CC50 at 3 days [1]: > 25000 nM
EC50 (HBV; class symbols): < 100 nM

O=C1N[C@@](CO)(CC2=C(c3ccn(C(F)F)n3)[C@H](c3ccc(F)cc3Cl)N=C(c3nccs3)N2)CO1 [Example 94]
CC50 at 3 days [1]: > 25000 nM
EC50 (HBV; class symbols): < 100 nM

O=S(=O)(N[C@H]1CC2=C(c3ccn(C4CC4)n3)[C@H](c3ccc(F)cc3Cl)N=C(c3nccs3)N2C1)C1CC1 [Example 3]
CC50 at 3 days [1]: > 25000 nM
EC50 (HBV; class symbols): < 100 nM

O=S(=O)(N[C@H]1CC2=C(c3cnn(C4CC4)c3)[C@H](c3ccc(F)cc3Cl)N=C(c3nccs3)N2C1)C1CC1 [Example 6]
CC50 at 3 days [1]: > 25000 nM
EC50 (HBV; class symbols): < 100 nM

COCCS(=O)(=O)N[C@H]1CC2=C(c3cnn(C(F)F)c3)[C@H](c3ccc(F)cc3Cl)N=C(c3nccs3)N2C1 [Example 57]
CC50 at 3 days [1]: > 25000 nM
EC50 (HBV; class symbols): < 100 nM

[N-]=[N+]=NC[C@]1(N=[N+]=[N-])CC2=C(c3cnn(C(F)F)c3)[C@H](c3ccc(F)cc3Cl)N=C(c3nccs3)N2C1 [Example 52]
EC50 (HBV; given as numeric bound): > 400 nM

COC(=O)NC[C@@H]1CN(CC2=C(c3ccn(C(F)F)n3)[C@H](c3ccc(F)cc3Cl)N=C(c3nccs3)N2)C(=O)O1 [Example 128]
EC50 (HBV; given as numeric bound): > 400 nM

CS(=O)(=O)NCC1(F)CC2=C(c3cnn(C(F)F)c3)[C@H](c3ccc(F)cc3Cl)N=C(c3nccs3)N2C1 (some centres unmarked) [Example 43]
EC50 (HBV; class symbols): 100 to 1000 nM

O=C(N[C@H]1CC2=C(c3cnn(C(F)F)c3)[C@H](c3ccc(F)cc3Cl)N=C(c3nccs3)N2C1)NS(=O)(=O)c1ccccc1 [Example 17]
EC50 (HBV; given as numeric bound): > 100 nM

O=C1N[C@@](CC2=C(c3ccn(C(F)F)n3)[C@H](c3ccc(F)cc3Cl)N=C(c3nccs3)N2)(C(=O)O)CO1 [Example 104]
EC50 (HBV; given as numeric bound): > 400 nM

CCOC(=O)NC[C@H]1CCC(=O)N1CC1=C(c2ccn(C(F)F)n2)[C@H](c2ccc(F)cc2Cl)N=C(c2nccs2)N1 [Example 134]
EC50 (HBV; given as numeric bound): > 400 nM

COC(=O)[C@]1(CC2=C(c3ccn(C(F)F)n3)[C@H](c3ccc(F)cc3Cl)N=C(c3nccs3)N2)COC(=O)N1 [Example 93]
EC50 (HBV; class symbols): < 100 nM

O=S(=O)(N[C@]1(CO)CC2=C(c3ccn(C(F)F)n3)[C@H](c3ccc(F)cc3Cl)N=C(c3nccs3)N2C1)C1CC1 [Example 70]
EC50 (HBV; class symbols): 100 to 1000 nM

CS(=O)(=O)NC[C@@]1(O)CC2=C(c3ccn(C(F)F)n3)[C@H](c3ccc(F)cc3Cl)N=C(c3nccs3)N2C1 [Example 115]
EC50 (HBV; given as numeric bound): > 400 nM

CO/N=C/[C@]1(CC2=C(c3ccn(C(F)F)n3)[C@H](c3ccc(F)cc3Cl)N=C(c3nccs3)N2)COC(=O)N1 [Example 101]
EC50 (HBV; given as numeric bound): > 400 nM

Fc1ccc([C@@H]2N=C(c3nccs3)NC(C[C@]3(F)CO[C@H](c4ccccc4)OC3)=C2c2cnn(C(F)F)c2)c(Cl)c1 [Example 144]
EC50 (HBV; given as numeric bound): > 400 nM

OCC(O)(CO)CC1=C(c2ccn(C(F)F)n2)[C@H](c2ccc(F)cc2Cl)N=C(c2nccs2)N1 [Example 111]
EC50 (HBV; class symbols): < 100 nM

Fc1ccc([C@@H]2N=C(c3nccs3)N3C(=C2c2cnn(C(F)F)c2)CC2CCCC23)c(Cl)c1 (some centres unmarked) [Example 47]
EC50 (HBV; given as numeric bound): > 400 nM

CN(C)C(=O)N[C@H]1CC2=C(c3cnn(C(F)F)c3)[C@H](c3ccc(F)cc3Cl)N=C(c3nccs3)N2C1 [Example 18]
EC50 (HBV; class symbols): < 100 nM

COC(=O)[C@@]1(NC(=O)OC(C)(C)C)CC2=C(c3ccn(C(F)F)n3)[C@H](c3ccc(F)cc3Cl)N=C(c3nccs3)N2C1 [Example 64]
EC50 (HBV; given as numeric bound): > 400 nM

[N-]=[N+]=NCC1(F)CC2=C(c3cnn(C(F)F)c3)[C@H](c3ccc(F)cc3Cl)N=C(c3nccs3)N2C1 (some centres unmarked) [Example 41]
EC50 (HBV; given as numeric bound): > 400 nM

COC(=O)N[C@]1(C(=O)O)CC2=C(c3ccn(C(F)F)n3)[C@H](c3ccc(F)cc3Cl)N=C(c3nccs3)N2C1 [Example 73]
EC50 (HBV; given as numeric bound): > 400 nM

OC[C@@]1(O)CC2=C(c3ccn(C(F)F)n3)[C@H](c3ccc(F)cc3Cl)N=C(c3nccs3)N2C1 [Example 122]
EC50 (HBV; class symbols): 100 to 1000 nM

CS(=O)(=O)OC[C@]1(N=[N+]=[N-])CC2=C(c3cnn(C(F)F)c3)[C@H](c3ccc(F)cc3Cl)N=C(c3nccs3)N2C1 [Example 49]
EC50 (HBV; class symbols): 100 to 1000 nM

COC(=O)CCNC(=O)OC[C@@]1(NC(=O)OC)CC2=C(c3ccn(C(F)F)n3)[C@H](c3ccc(F)cc3Cl)N=C(c3nccs3)N2C1 [Example 78]
EC50 (HBV; given as numeric bound): > 400 nM

CN(C)S(=O)(=O)N[C@H]1CC2=C(c3cnn(C(F)F)c3)[C@H](c3ccc(F)cc3Cl)N=C(c3nccs3)N2C1 [Example 13]
CC50 at 3 days [1]: > 25000 nM
EC50 (HBV; class symbols): < 100 nM

COC(=O)/C=C/[C@]1(CC2=C(c3ccn(C(F)F)n3)[C@H](c3ccc(F)cc3Cl)N=C(c3nccs3)N2)COC(=O)N1 [Example 105]
EC50 (HBV; given as numeric bound): > 400 nM

COC(=O)CNC(=O)[C@@]1(NC(=O)OC)CC2=C(c3ccn(C(F)F)n3)[C@H](c3ccc(F)cc3Cl)N=C(c3nccs3)N2C1 [Example 74]
EC50 (HBV; given as numeric bound): > 400 nM

COC(=O)[C@@]1(CC2=C(c3ccn(C(F)F)n3)[C@H](c3ccc(F)cc3Cl)N=C(c3nccs3)N2)COC(=O)N1 [Example 89]
EC50 (HBV; given as numeric bound): > 400 nM

[N-]=[N+]=NC[C@@]1(O)CC2=C(c3ccn(C(F)F)n3)[C@H](c3ccc(F)cc3Cl)N=C(c3nccs3)N2C1 [Example 113]
EC50 (HBV; class symbols): 100 to 1000 nM

O=C1N[C@](CC2=C(c3ccn(C(F)F)n3)[C@H](c3ccc(F)cc3Cl)N=C(c3nccs3)N2)(C(=O)O)CO1 [Example 103]
EC50 (HBV; given as numeric bound): > 400 nM

O=S(=O)(N[C@H]1CC2=C(c3cnn(C(F)F)c3)[C@H](c3ccc(F)cc3Cl)N=C(c3nccs3)N2C1)C1CCOCC1 [Example 56]
CC50 at 3 days [1]: > 25000 nM
EC50 (HBV; class symbols): < 100 nM

[N-]=[N+]=N[C@]1(CO)CC2=C(c3cnn(C(F)F)c3)[C@H](c3ccc(F)cc3Cl)N=C(c3nccs3)N2C1 [Example 50]
EC50 (HBV; class symbols): < 100 nM

CC(C)(C)OC(=O)NC[C@@H]1CCC(=O)N1CC1=C(c2ccn(C(F)F)n2)[C@H](c2ccc(F)cc2Cl)N=C(c2nccs2)N1 [Example 131]
EC50 (HBV; given as numeric bound): > 400 nM
